Source: patent US12503432B2, “Ionizable lipids for nucleic acid delivery” (Global Life Sciences Solutions Canada ULC, priority 2019, dated 2025)

Tests used:
[1] = test system: primary human T cells; assay: CD19 CAR mRNA LNP expression in isolated primary human T cells; format: cell-based; conditions: CT10, N/P 8, transfected T cells in vitro, FIG. 9
Protocol: FIG. 9 are two illustrations of CD19 CAR expression levels in isolated primary human T cells mediated by mRNA CT10 N/P 8 LNPs containing PNI 545, PNI 516, PNI132, PNI 542, PNI 565 incorporating CD19 CAR (chimeric antigen receptor) mRNA. Geometric mean fluorescence intensity of anti-CD19-PE fluorophore (top bar graph) and CD19 CAR positive T cell population (bottom histogram) were measured by flow cytometry 24 hours following LNP addition with 500 ng of encapsulated mRNA per 125,000 T cells 3 days after triple activation;
CD19 CAR expression in isolated primary human T cells mediated by mRNA-LNPs containing IL with CT10 composition at N/P 8 was assayed after in vitro exposure. The CAR vector pcDNA3.1 anti-CD19-h(BB Lambda)-EGFP-2nd-CAR (T7 Mut) 7661 bp was purchased from Creative BioLabs, NY, USA.
T cells were isolated from whole blood using a negative isolation procedure and T cell activation, and expansion was carried out by triple activation in ImmunoCult™ Human T Cell Expansion Media as described supra.

[2] = test system: primary human T cells; assay: EPO mRNA LNP delivery to primary human T cells, Quantikine IVD Human Epo ELISA; format: cell-based
Protocol: Reagents were acquired from Quantikine, Minneapolis, MN. The assay was performed as directed on the Quantikine® IVD® ELISA Human Erythropoietin Immunoassay protocol in the package insert. Briefly; primary human T cells were isolated from fresh whole blood using a negative selection protocol and activated using a triple activator. Seven days post-activation, T cells were dosed with mRNA LNPs encoding EPO at […] mRNA per 500,000 cells and N/P 10. After 48 h of exposure, the T cells were harvested and lysed for cytosolic EPO and media supernatant was sampled for secreted EPO. Quantikine® Human Serum Controls were used.

[3] = primary human T cells, 48 hours

Compound | CD19 CAR expression [1] | cytosolic EPO ([2]; T cell lysate, 48 h exposure, N/P 10, FIG. 5) | secreted EPO ([2]; media supernatant, 48 h exposure, N/P 10, FIG. 5) | EPO expression mediated by LNPs versus MC3 [2, 3] | Fold increase in EPO concentration relative to MC3 [2, 3] | EPO concentration (mIU/mL), 48 hours ([2]; primary human T cells, 48 hours, EPO mRNA LNP, N/P 10) [mIU/mL]
CC/C=C\CC1C(CC(=O)OCCC(CCCCCCCC)OC(=O)C(CCCCCC)CCCCCCCC)CCC1OC(=O)C1(C)CCN(C)CC1 (stereo not drawn) [PNI 565] | greater than MC3 LNP |  |  |  |  | 
CC/C=C\CC1C(CC(=O)OCC(COCCCCCCCC/C=C\C/C=C\CCCCC)OCCCCCCCC/C=C\C/C=C\CCCCC)CCC1OC(=O)CCCN(C)C (stereo not drawn) [PNI 101] |  | no cytosolic EPO | about 1016 mlU/mL | higher than those containing MC3 | 1.87 | 1016.0
